Several values for one entry are separate records, joined by “and”; a condition that tells them apart may be missing. Equal entries are not always repeated.
Experiments:
Female BALB/c mice = test: Firefly luciferase expression (total flux, IVIS imaging) in mice after injection of mRNA-loaded LNPs; type: in vivo
Protocol: For in vivo administration, mRNA comprising in the 5' to 3' direction a sequence encoding for luciferase of SEQ ID NO:1, was encapsulated into LNPs following the procedure described in Hassett, K. J. et al., "Optimization of Lipid Nanoparticles for Intramuscular Administration of mRNA Vaccines", 2019, Mol. Ther. Nucleic Acid, vol. 15, pp. 1-11. Briefly, the purified mRNAs were first diluted in sodium citrate buffer at pH=4 at a final concentration of 266 µg/ml. Separately, a mixture of the ionizable lipid of the invention:DSPC (Merk 850365P):cholesterol (Sigma C3045):DMG-PEG2000 (Cayman 33945-1) were dissolved into ethanol at the respective molar percentages of 50:10:38.5:1.5, and with a lipid-nitrogen-to-phosphate ratio (N:P) ratio of 5,5:1.
The mRNA aqueous solution was then carefully added to the ethanol solution, and the resulted solution was homogenized by pipetting up and down for 4-5 times. The resulting LNPs were immediately diluted 1:1 with Tris buffer and dialyzed overnight against Tris buffer containing 15% sucrose. The resulting LNP solution was then collected, and the encapsulated mRNA was assessed by Quant-IT® Ribogreen (Invitrogen R11490) following the manufacturer's instructions.
Female BALB/c mice (Charles River Laboratories), 8-10-week-old, weighting 18-23 g, were acclimatized to new conditions upon arrival to experimental facilities for 3-7 days. Housing conditions were room temperature 20-24 °C, humidity 50-70 %, and light intensity 60 lux with a light-dark cycle of 12 hours.
For Firefly Luciferase activity measurement in mice, LNPs produced as indicated above (ionizable lipid:helper lipid: sterol:PEG-modified lipid → 50:10:38.5:1.5) and containing 5 µg of the indicated mRNA in 50 µl final volume, were injected intramuscularly.
From 4 to 72 hours after RNA-LPN inoculation mice were anaesthetized by inhalation with 4% of isoflurane using a vaporizer. The maintenance of the anaesthesia was performed at 1.5% of isoflurane. Then, D-luciferin (Quimigen, 12507) was injected intraperitoneally at 150 mg/kg, normally ~200 µL of the stock at 15 mg/mL in PBS for a 20 g mouse. Luciferase images were acquired 10 minutes after luciferin inoculation using the IVIS Lumina XRMS Imaging System following manufacturer's instructions.

[1] = Size distribution, polydispersity and Z-potential of LNPs by dynamic light scattering (Malvern Zetasizer); type: physicochemical; settings: LNPs, standard formulation 50:10:38.5:1.5; DLS
Protocol: The LNP solution was then adjusted to a final concentration of mRNA of 100 µg/ml. Size distribution, polydispersity and Z-potential were measured by dynamic light scattering (DLS) using Malvern Zetasizer Advance Lab Blue Label. RNA encapsulation was assessed by Quant-IT® Ribogreen following the manufacturer's instructions.

[2] = RNA encapsulation efficiency of LNPs by Quant-IT Ribogreen; type: physicochemical; settings: for Encaps. efficiency (%): LNPs with luciferase mRNA, ionizable lipid:non-cationic lipid:sterol:PEG-modified lipid 50:10:38.5:1.5, percentage of RNA entrapped in the LNP; for Encaps. efficiency: Table 8, LNP 50:10:38.5:1.5, luciferase mRNA
Summary of the method: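 LNPs formed by mixing aqueous mRNA into ethanol lipid solution, diluted 1:1 in Tris, dialysed overnight against Tris with 15% sucrose. Encapsulated mRNA measured by Ribogreen fluorescence per kit protocol; LNPs adjusted to 100 µg/ml final mRNA.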

[3] = Apparent pKa of LNPs comprising the ionizable lipid (Table 6); settings: standard formulation 50:10:38.5:1.5
[4] = Table 8, mice, intramuscular, 5 µg luciferase mRNA in 50 µl, LNP 50:10:38.5:1.5
[5] = Table 9, comparative disulfide compounds, tested in vivo

Row | Structure (SMILES) | Total Flux (Female BALB/c mice; Table 7A-C, mice, intramuscular, 5 µg luciferase mRNA in 50 µl, LNP ionizable lipid:helper lipid:sterol:PEG-modified lipid 50:10:38.5:1.5) | Total Flux (Female BALB/c mice; [4]) [p·s^-1] | Z Potential (± D.E.) [mV] [1] [mV] | Encaps. efficiency (%) [2] [%] | Encaps. efficiency [2] | Particle size/ Ø (nm) [1] [nm] | Total Flux (Female BALB/c mice; [5]) [p·s^-1] | transfection (luminescence) in vivo (Female BALB/c mice; Figure 2, intramuscular injection, LNP 50:10:38.5:1.5 encapsulating luciferase mRNA) | Apparent pKa [3] | P.D.I. [1]
1 | CCCCCCC#CCCOC(=O)CCSCC(CC(=O)NCCCN1CCOCC1)C(=O)OC(CCCCCCCC)CCCCCCCC (stereo not shown) | Total flux: 1,4E+08 p·s^-1 |  |  |  |  |  |  |  |  | 
2 | CCCCCCCCC(CCCCCC)C(=O)NC(CCSCCC(=O)OCCCCCCCC(C)C)C(=O)NCCCN(C)C (stereo not shown) [VC-LC-0101] |  | 1.05E+07 | 0.00 | 96.01 | 96.0% |  |  |  |  | 
3 | CCCCCCCCCCCCCCCCCCOC(=O)CCSCCC(NC(=O)C(CCCCCC)CCCCCCCC)C(=O)NC1CCN(C)CC1 (stereo not shown) [VC-LC-0215] |  | 4.23E+07 | -13.70 | 58.34 | 58.3% | 143.5 |  |  |  | 
4 | CCCCCCCCC(CCCCCC)C(=O)NC(CCSSCCC(NC(=O)C(CCCCCC)CCCCCCCC)C(=O)NCCCN(C)C)C(=O)NCCCN(C)C (stereo not shown) [VC-LC-0230] |  |  |  |  |  |  | 4.47E+05 |  |  | 
5 | CCCCCCCCC(CCCCCC)C(=O)NC(CCSSCCC(NC(=O)C(CCCCCC)CCCCCCCC)C(=O)NCCN1CCN(C)CC1)C(=O)NCCN1CCN(C)CC1 (stereo not shown) [VC-LC-0236] |  |  |  |  |  |  | 5.20E+05 | no transfection |  | 
6 | CCCCCCCCC(CCCCCC)C(=O)NC(CCSSCCC(NC(=O)C(CCCCCC)CCCCCCCC)C(=O)NCCCN(CCO)CCO)C(=O)NCCCN(CCO)CCO (stereo not shown) [VC-LC-0237] |  |  |  |  |  |  | 3.16E+05 |  |  | 
7 | CCCCCCCCCCC(CCCCCCCC)C(=O)NC(CCSCCC(=O)OCCCCCCCC)C(=O)NCC1CCN(C)CC1 (stereo not shown) [VC-LC-0519] |  |  | -1.93 | 97.15 |  | 137.9 |  |  | 6.69 | 0.16
8 | CCCCCCCC/C=C\CCCCCCCCOC(=O)CCSCCC(NC(=O)C(CCCCCCCC)CCCCCCCCCC)C(=O)NCC1CCN(C)CC1 (stereo not shown) [VC-LC-0523] |  |  | 5.29 | 95.57 |  | 169.3 |  |  | 7.32 | 0.17
9 | CCCCCCCCC(CCCCCC)COC(=O)CCSCC(CC(=O)NC1CCN(C)CC1)C(=O)OCC(CCCCCC)CCCCCCCC (stereo not shown) [VC-LC-0525] |  |  | -5.11 | 59.89 | 59.9% and 95.6% | 151 |  |  | 6.67 | 0.18
10 | CCCCCCCCC(CCCCCC)COC(=O)C(CSCCC(=O)OCCCCCC(C)C)CC(=O)NC1CCN(C)CC1 (stereo not shown) [VC-LC-0532] |  |  | 8.05 | 99.89 |  | 137.8 |  |  | 8.11 | 0.15
11 | CCCCCCCCOC(=O)CCSCC(CC(=O)NC1CCN(C)CC1)C(=O)OCC(CCCCCC)CCCCCCCC (stereo not shown) [VC-LC-0535] |  |  | 4.45 | 96.61 |  | 144.7 |  |  | 7.87 | 0.11
12 | CCCCCCCCCCCCC(CCCCCCCCCC)COC(=O)CCSCC(CC(=O)NC1CCN(C)CC1)C(=O)OCC(CCCCCC)CCCCCCCC (stereo not shown) [VC-LC-0537] |  |  | -8.81 | 69.42 |  | 165.1 |  |  | 5.23 | 0.14
13 | CCCCCCCC#CCOC(=O)CCSCC(CC(=O)NC1CCN(C)CC1)C(=O)OCC(CCCCCC)CCCCCCCC (stereo not shown) [VC-LC-0538] |  |  | 5.13 | 96.86 |  | 153.4 |  |  | 8.25 | 0.16
14 | CCCCCCCCC(CCCCCC)COC(=O)CCSCC(CC(=O)NCCCN1CCOCC1)C(=O)OC(CCCCCCCC)CCCCCCCC (stereo not shown) [VC-LC-0541] |  |  | -6.83 | 42.80 |  | 154.7 |  |  | 6.39 | 0.11
15 | CCCCCCCCC(CCCCCCCC)OC(=O)C(CSCCC(=O)OCCCCCCCC(C)C)CC(=O)NCCCN1CCOCC1 (stereo not shown) [VC-LC-0542] |  |  | -10.60 | 33.76 |  | 156.3 |  |  | 6.43 | 0.14
16 | CCCCCCCCC(CCCCCCCC)OC(=O)C(CSCCC(=O)OCC(CC)CCCC)CC(=O)NCCCN1CCOCC1 (stereo not shown) [VC-LC-0543] |  |  | -10.98 | 31.75 |  | 155.7 |  |  | 6.61 | 0.14
17 | CCCCCCCCCCCCOC(=O)CCSCC(CC(=O)NCCCN1CCOCC1)C(=O)OC(CCCCCCCC)CCCCCCCC (stereo not shown) [VC-LC-0544] |  |  | -11.02 | 36.86 |  | 140.3 |  |  | 6.53 | 0.12
18 | CCCCCCCCCCC(CCCCCCCC)C(=O)NC(CCSCCC(=O)OCC(CC)CCCC)C(=O)NC1CCN(C)CC1 (stereo not shown) [VC-LC-0559] |  |  | -5.71 | 65.25 |  | 138.8 |  |  | 6.40 | 0.14
19 | CCCCCCCCCCC(CCCCCCCC)C(=O)NC(CCSCCC(=O)OCCCCCC)C(=O)NC1CCN(C)CC1 (stereo not shown) [VC-LC-0566] |  |  | -3.35 | 55.25 |  | 149.0 |  |  | 6.57 | 0.13
20 | CCCCCCCCCCCCCCOC(=O)CCSCCC(NC(=O)C(CCCCCCCC)CCCCCCCCCC)C(=O)NCCCN1CCOCC1 (stereo not shown) [VC-LC-0577] |  |  | -15.06 | 55.61 |  | 182.2 |  |  | 5.69 | 0.13
21 | CCCCCCCC/C=C\CCCCCCCCOC(=O)CCSCCC(NC(=O)C(CCCCCCCC)CCCCCCCCCC)C(=O)NCCCN1CCOCC1 (stereo not shown) [VC-LC-0587] |  |  | -6.62 | 38.50 |  | 150.3 |  |  | 5.54 | 0.12
22 | CCCCCCCCCCCCCOC(=O)CCSCCC(C(=O)NCCCN1CCOCC1)C(=O)OCC(CCCCCC)CCCCCCCC (stereo not shown) [VC-LC-0605] |  |  | -11.79 | 52.30 |  | 136.3 |  |  | 5.68 | 0.24
23 | CCCCCCCCC(CCCCCC)COC(=O)CCSCCC(C(=O)NCCCN1CCOCC1)C(=O)OCC(CCCCCC)CCCCCCCC (stereo not shown) [VC-LC-0606] |  |  | -9.73 | 51.46 |  | 168.0 |  |  | 5.64 | 0.18
24 | CCCCCCCCC(CCCCCC)COC(=O)C(CCSCCC(=O)OCCCCCCCC(C)C)C(=O)NCCCN1CCOCC1 (stereo not shown) [VC-LC-0607] |  |  | -11.81 | 49.38 |  | 148.0 |  |  | 5.89 | 0.17
25 | CCCCCCCCC(CCCCCC)COC(=O)C(CCSCCC(=O)OCC(CC)CCCC)C(=O)NCCCN1CCOCC1 (stereo not shown) [VC-LC-0608] |  |  | -11.14 | 50.40 |  | 179.2 |  |  | 5.88 | 0.20
26 | CCCCCCCCCCCCCCOC(=O)CCSCCC(C(=O)NCCCN1CCOCC1)C(=O)OCC(CCCCCC)CCCCCCCC (stereo not shown) [VC-LC-0610] |  |  | -21.04 | 55.68 |  | 168.1 |  |  | 5.93 | 0.13
